Measured values: ChEMBL document CHEMBL5649169 (ChemMedChem, 2018)

Experiments:
[1] = biological target: PAS domain-containing serine/threonine-protein kinase (Homo sapiens) (UniProt Q96RG2); also: assay method not described here
[2] = biological target: Signal recognition particle 14 kDa protein (Homo sapiens) (UniProt P37108); also: assay method not described here
[3] = biological target: Coatomer subunit delta (Homo sapiens) (UniProt P48444); also: assay method not described here
[4] = biological target: Ubiquitin carboxyl-terminal hydrolase 9X (Homo sapiens) (UniProt Q93008); also: assay method not described here
[5] = biological target: MICOS complex subunit MIC60 (Homo sapiens) (UniProt Q16891); also: assay method not described here
[6] = biological target: Mitotic deacetylase-associated SANT domain protein (Homo sapiens) (UniProt Q6PJG2); also: assay method not described here
[7] = biological target: Secretory carrier-associated membrane protein 3 (Homo sapiens) (UniProt O14828); also: assay method not described here
[8] = biological target: Transmembrane protein 94 (Homo sapiens) (UniProt Q12767); also: assay method not described here
[9] = biological target: Cold shock domain-containing protein E1 (Homo sapiens) (UniProt O75534); also: assay method not described here
[10] = biological target: Staphylococcal nuclease domain-containing protein 1 (Homo sapiens) (UniProt Q7KZF4); also: assay method not described here
Sequence of Staphylococcal nuclease domain-containing protein 1 (Homo sapiens) (Q7KZF4 whole entry, the tested form may be a part): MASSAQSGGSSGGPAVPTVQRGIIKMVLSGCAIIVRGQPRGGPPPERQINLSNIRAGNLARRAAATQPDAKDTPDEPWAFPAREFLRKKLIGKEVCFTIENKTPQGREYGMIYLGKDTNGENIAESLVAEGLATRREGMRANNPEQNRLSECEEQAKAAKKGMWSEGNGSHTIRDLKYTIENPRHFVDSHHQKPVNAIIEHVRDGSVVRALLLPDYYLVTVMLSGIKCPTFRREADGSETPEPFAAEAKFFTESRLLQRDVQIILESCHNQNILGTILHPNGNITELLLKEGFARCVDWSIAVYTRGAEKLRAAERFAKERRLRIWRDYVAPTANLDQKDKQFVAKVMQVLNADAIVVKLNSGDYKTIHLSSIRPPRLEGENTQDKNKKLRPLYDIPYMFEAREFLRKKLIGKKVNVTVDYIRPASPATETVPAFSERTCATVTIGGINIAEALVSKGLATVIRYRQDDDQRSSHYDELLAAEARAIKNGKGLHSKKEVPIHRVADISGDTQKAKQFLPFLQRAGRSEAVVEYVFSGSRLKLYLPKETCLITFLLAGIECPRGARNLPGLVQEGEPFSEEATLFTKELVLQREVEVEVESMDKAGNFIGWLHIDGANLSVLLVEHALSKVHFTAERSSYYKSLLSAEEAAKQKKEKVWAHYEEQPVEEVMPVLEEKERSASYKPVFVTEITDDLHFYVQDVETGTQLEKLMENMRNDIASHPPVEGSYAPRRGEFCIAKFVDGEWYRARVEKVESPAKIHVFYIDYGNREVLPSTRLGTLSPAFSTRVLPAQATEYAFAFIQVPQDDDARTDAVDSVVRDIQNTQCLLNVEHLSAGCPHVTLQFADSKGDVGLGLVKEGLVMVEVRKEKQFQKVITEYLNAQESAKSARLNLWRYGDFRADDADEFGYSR

Homo sapiens [11] = species: Homo sapiens; also: assay method not described here
[12] = biological target: Inorganic pyrophosphatase (Homo sapiens) (UniProt Q15181); also: assay method not described here
Sequence of Inorganic pyrophosphatase (Homo sapiens) (Q15181 whole entry): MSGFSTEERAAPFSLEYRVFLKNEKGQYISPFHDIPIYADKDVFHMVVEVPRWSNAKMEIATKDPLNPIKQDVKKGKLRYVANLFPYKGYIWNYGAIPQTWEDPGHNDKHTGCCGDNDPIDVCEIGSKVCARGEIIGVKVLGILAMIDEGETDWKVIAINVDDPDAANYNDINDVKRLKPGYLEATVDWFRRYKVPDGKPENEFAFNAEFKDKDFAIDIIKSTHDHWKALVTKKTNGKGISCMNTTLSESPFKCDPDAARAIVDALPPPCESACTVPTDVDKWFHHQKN

Homo sapiens [13] = species: Homo sapiens; remark: listed apart in the source; also: assay method not described here
Homo sapiens [14] = species: Homo sapiens; remark: listed apart in the source; also: assay method not described here
[15] = biological target: Eukaryotic translation initiation factor 2-alpha kinase 1 (Homo sapiens) (UniProt Q9BQI3); also: assay method not described here
Copine-4 (Homo sapiens) = Copine-4 (Homo sapiens) (UniProt Q96A23)
[16] = biological target: RNA-binding protein Musashi homolog 2 (Homo sapiens) (UniProt Q96DH6); also: assay method not described here
[17] = biological target: Protein kinase C zeta type (Homo sapiens) (UniProt Q05513); also: assay method not described here
[18] = biological target: Receptor-type tyrosine-protein kinase FLT3 (Homo sapiens) (UniProt P36888); also: assay method not described here
[19] = biological target: Interleukin-1 receptor-associated kinase 4 (Homo sapiens) (UniProt Q9NWZ3); also: assay method not described here
Sequence of Interleukin-1 receptor-associated kinase 4 (Homo sapiens) (Q9NWZ3 whole entry): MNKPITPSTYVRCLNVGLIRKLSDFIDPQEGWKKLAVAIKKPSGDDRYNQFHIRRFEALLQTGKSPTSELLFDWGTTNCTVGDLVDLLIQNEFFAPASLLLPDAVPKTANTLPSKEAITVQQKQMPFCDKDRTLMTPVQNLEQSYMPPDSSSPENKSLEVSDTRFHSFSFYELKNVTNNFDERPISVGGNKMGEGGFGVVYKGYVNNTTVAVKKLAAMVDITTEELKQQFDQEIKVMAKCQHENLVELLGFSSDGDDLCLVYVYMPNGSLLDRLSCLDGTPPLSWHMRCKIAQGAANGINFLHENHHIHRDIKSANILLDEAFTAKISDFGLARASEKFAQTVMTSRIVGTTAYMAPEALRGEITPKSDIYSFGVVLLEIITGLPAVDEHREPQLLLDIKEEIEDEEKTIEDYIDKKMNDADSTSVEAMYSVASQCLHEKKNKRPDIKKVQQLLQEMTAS

[20] = biological target: Replication factor C subunit 5 (Homo sapiens) (UniProt P40937); also: assay method not described here
[21] = biological target: Nuclear cap-binding protein subunit 2 (Homo sapiens) (UniProt P52298); also: assay method not described here
[22] = biological target: Transmembrane 9 superfamily member 4 (Homo sapiens) (UniProt Q92544); also: assay method not described here
[23] = biological target: V-type proton ATPase subunit G 1 (Homo sapiens) (UniProt O75348); also: assay method not described here
Sequence of V-type proton ATPase subunit G 1 (Homo sapiens) (O75348 whole entry): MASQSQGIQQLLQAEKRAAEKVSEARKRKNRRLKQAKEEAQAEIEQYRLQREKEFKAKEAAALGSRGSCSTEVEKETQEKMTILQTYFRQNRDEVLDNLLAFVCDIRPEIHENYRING

[24] = biological target: ATP synthase peripheral stalk subunit b, mitochondrial (Homo sapiens) (UniProt P24539); also: assay method not described here
[25] = biological target: Probable helicase with zinc finger domain (Homo sapiens) (UniProt P42694); also: assay method not described here
[26] = biological target: Origin recognition complex subunit 3 (Homo sapiens) (UniProt Q9UBD5); also: assay method not described here
[27] = biological target: Solute carrier family 2, facilitated glucose transporter member 1 (Homo sapiens) (UniProt P11166); also: assay method not described here
[28] = biological target: Transducin beta-like protein 3 (Homo sapiens) (UniProt Q12788); also: assay method not described here
Lamin-B1 (Homo sapiens) = Lamin-B1 (Homo sapiens) (UniProt P20700)
Sequence of Lamin-B1 (Homo sapiens) (P20700 whole entry): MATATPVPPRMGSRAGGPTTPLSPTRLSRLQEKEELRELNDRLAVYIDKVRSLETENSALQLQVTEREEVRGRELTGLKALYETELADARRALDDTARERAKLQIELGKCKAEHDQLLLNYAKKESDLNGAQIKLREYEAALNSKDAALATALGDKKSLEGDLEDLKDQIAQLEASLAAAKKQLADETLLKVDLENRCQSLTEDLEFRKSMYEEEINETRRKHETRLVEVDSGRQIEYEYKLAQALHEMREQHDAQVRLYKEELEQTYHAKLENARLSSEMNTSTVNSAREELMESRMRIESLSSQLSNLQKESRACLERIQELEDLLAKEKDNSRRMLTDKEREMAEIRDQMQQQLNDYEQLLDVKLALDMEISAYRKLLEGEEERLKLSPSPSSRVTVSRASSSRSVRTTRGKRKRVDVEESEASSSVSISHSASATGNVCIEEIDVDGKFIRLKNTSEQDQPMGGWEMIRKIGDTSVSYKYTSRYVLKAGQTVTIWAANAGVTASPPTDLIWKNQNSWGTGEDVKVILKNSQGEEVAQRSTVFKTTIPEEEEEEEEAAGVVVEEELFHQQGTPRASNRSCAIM

[29] = biological target: Proteasome subunit alpha type-4 (Homo sapiens) (UniProt P25789); also: assay method not described here
[30] = biological target: H/ACA ribonucleoprotein complex subunit 1 (Homo sapiens) (UniProt Q9NY12); also: assay method not described here
[31] = biological target: MAP kinase-activated protein kinase 2 (Homo sapiens) (UniProt P49137); also: assay method not described here
[32] = biological target: Cyclin-dependent kinase 2 (Homo sapiens) (UniProt P24941); also: assay method not described here
[33] = biological target: Ubiquitin-associated protein 2 (Homo sapiens) (UniProt Q5T6F2); also: assay method not described here
Sequence of Ubiquitin-associated protein 2 (Homo sapiens) (Q5T6F2 whole entry): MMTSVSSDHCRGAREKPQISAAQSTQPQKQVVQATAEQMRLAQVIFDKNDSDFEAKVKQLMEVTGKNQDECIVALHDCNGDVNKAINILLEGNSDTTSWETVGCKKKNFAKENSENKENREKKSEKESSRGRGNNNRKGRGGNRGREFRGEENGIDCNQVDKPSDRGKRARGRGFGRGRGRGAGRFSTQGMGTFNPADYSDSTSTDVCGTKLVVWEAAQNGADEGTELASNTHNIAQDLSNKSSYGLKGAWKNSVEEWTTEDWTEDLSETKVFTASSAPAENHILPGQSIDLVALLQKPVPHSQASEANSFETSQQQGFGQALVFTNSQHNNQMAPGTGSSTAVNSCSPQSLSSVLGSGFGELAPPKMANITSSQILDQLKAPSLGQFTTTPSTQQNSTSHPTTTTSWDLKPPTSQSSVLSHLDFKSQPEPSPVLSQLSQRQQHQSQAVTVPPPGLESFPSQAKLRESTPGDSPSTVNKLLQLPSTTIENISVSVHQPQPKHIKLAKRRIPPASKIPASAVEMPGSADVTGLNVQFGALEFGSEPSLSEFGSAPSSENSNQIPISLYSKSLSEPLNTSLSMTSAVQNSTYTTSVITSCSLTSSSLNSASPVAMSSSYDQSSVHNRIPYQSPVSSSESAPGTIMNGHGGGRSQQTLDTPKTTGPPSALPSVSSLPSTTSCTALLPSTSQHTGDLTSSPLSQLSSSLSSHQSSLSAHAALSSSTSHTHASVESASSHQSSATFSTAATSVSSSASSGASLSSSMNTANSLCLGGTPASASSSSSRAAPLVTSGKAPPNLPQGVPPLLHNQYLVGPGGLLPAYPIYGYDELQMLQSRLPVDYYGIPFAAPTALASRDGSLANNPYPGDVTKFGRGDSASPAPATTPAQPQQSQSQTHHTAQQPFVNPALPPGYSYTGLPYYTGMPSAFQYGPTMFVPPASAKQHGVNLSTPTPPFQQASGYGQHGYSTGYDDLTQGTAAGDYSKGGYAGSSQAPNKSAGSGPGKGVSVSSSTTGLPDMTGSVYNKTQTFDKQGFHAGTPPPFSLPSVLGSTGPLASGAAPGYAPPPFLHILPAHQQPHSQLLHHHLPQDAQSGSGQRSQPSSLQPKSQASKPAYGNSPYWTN

[34] = biological target: Ras-related protein Rab-5C (Homo sapiens) (UniProt P51148); also: assay method not described here
Ephrin type-A receptor 6 = Ephrin type-A receptor 6 (Homo sapiens, UniProt Q9UF33); experiment: Inhibition of Nano Luc-fused full length C-terminal EPHA6 (unknown origin) expressed in HEK293T cells using NanoGlo as substrate incubated for 2 hrs in presence of tracer by NanoBRET assay; type: cell-based
Sequence of Ephrin type-A receptor 6 (Q9UF33 whole entry, the tested form may be a part): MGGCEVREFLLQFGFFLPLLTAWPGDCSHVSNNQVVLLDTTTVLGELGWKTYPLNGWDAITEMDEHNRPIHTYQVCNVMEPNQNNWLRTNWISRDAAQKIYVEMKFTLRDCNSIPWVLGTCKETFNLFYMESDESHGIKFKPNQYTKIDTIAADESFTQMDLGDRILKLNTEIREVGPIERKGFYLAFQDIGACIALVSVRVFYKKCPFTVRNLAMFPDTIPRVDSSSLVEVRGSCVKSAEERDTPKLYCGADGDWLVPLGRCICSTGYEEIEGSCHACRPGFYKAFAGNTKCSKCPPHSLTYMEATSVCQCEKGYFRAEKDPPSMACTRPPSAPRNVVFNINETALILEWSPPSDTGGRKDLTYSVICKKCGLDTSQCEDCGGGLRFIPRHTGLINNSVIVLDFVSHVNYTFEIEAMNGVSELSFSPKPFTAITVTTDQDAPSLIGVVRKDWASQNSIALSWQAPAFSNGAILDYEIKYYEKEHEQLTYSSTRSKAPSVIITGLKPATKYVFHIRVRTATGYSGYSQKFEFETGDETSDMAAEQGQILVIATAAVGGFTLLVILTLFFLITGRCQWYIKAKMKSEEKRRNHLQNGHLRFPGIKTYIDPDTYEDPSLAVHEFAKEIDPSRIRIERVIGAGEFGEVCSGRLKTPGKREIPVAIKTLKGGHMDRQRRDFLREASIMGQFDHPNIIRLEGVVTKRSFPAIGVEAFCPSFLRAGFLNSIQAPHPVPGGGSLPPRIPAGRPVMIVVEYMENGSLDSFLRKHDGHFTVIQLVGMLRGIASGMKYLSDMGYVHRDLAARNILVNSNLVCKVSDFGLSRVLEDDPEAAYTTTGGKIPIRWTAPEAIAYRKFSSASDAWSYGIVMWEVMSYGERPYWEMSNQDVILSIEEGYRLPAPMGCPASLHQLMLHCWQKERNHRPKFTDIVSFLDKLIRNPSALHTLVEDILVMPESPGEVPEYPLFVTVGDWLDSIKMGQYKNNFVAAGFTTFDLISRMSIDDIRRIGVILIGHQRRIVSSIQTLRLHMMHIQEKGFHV

[35] = biological target: Lanosterol synthase (Homo sapiens) (UniProt P48449); also: assay method not described here
[36] = biological target: Periphilin-1 (Homo sapiens) (UniProt Q8NEY8); also: assay method not described here
[37] = biological target: Equilibrative nucleobase transporter 1 (Homo sapiens) (UniProt Q8NBI5); also: assay method not described here
[38] = biological target: Small ribosomal subunit protein mS40 (Homo sapiens) (UniProt Q9Y676); also: assay method not described here
[39] = biological target: NADH dehydrogenase [ubiquinone] 1 alpha subcomplex subunit 13 (Homo sapiens) (UniProt Q9P0J0); also: assay method not described here
[40] = biological target: ER lumen protein-retaining receptor 1 (Homo sapiens) (UniProt P24390); also: assay method not described here
Translin (Homo sapiens) = Translin (Homo sapiens) (UniProt Q15631)
[41] = biological target: GDP-mannose 4,6 dehydratase (Homo sapiens) (UniProt O60547); also: assay method not described here
[42] = biological target: RNA-splicing ligase RtcB homolog (Homo sapiens) (UniProt Q9Y3I0); also: assay method not described here
[43] = biological target: EKC/KEOPS complex subunit TPRKB (Homo sapiens) (UniProt Q9Y3C4); also: assay method not described here
For ED50 in this document: assay method not described here.

Sequence of Coatomer subunit delta (Homo sapiens) (P48444 whole entry): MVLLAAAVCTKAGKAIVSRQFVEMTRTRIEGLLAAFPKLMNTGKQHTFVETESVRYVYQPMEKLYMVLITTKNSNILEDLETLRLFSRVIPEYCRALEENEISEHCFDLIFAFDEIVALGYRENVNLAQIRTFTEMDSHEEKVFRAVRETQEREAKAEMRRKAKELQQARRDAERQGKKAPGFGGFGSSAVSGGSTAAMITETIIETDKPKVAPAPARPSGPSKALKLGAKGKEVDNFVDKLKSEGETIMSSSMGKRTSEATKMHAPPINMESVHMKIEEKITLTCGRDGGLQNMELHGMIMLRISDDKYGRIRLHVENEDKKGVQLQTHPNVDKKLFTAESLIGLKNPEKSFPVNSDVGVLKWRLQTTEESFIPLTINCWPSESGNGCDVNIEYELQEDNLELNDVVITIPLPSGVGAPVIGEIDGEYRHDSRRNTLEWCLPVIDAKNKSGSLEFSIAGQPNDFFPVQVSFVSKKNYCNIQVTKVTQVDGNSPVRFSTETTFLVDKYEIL

## Cc1ccc(C(=O)Nc2cccc(C(F)(F)F)c2)cc1Nc1nc(-c2cccnc2)nc2c1cnn2C
[1]
  ED50: 14.7 µM
[2]
  ED50: 20.3 µM
[3]
  ED50: 2.38 µM
[4]
  ED50: 0.0603 µM
[5]
  ED50: 5.75 µM
[6]
  ED50: 12.8 µM
[7]
  ED50: 0.00292 µM
[8]
  ED50: 0.0776 µM
[9]
  ED50: 72.6 µM
[10]
  ED50: 23.6 µM
Homo sapiens [11]
  ED50: 3.23 µM
[12]
  ED50: 8.44 µM
Homo sapiens [13]
  ED50: 11.8 µM
Homo sapiens [14]
  ED50: 2.74 µM
[15]
  ED50: 25.6 µM
Copine-4 (Homo sapiens)
  ED50: 0.00867 µM
[16]
  ED50: 0.00124 µM
[17]
  ED50: 6210 µM
[18]
  ED50: 0.00514 µM
[19]
  ED50: 0.466 µM
[20]
  ED50: 0.584 µM
[21]
  ED50: 0.00229 µM
[22]
  ED50: 9.65 µM
[23]
  ED50: 501 µM
[24]
  ED50: 11.5 µM
[25]
  ED50: 0.00939 µM
[26]
  ED50: 22.9 µM
[27]
  ED50: 1.85 µM
[28]
  ED50: 4.7 µM
Lamin-B1 (Homo sapiens)
  ED50: 13.8 µM
[29]
  ED50: 0.151 µM
[30]
  ED50: 0.181 µM
[31]
  ED50: 0.549 µM
[32]
  ED50: 0.0475 µM
[33]
  ED50: 111 µM
[34]
  ED50: 19.2 µM
Ephrin type-A receptor 6
  IC50: 0.263 µM
[35]
  ED50: 112 µM
[36]
  ED50: 0.336 µM
[37]
  ED50: 12.9 µM
[38]
  ED50: 15.6 µM

## Cc1ccc(C(=O)Nc2cccc(C(F)(F)F)c2)cc1Nc1nc(-c2cccnc2)nc2nn(C)cc12
[2]
  ED50: 3.59 µM
[3]
  ED50: 8.38 µM
[39]
  ED50: 0.00585 µM
[5]
  ED50: 0.00743 µM
[7]
  ED50: 1.01 µM
[40]
  ED50: 0.000253 µM
[9]
  ED50: 0.099 µM
[10]
  ED50: 0.57 µM
[12]
  ED50: 1.31 µM
Homo sapiens [14]
  ED50: 0.0747 µM
Translin (Homo sapiens)
  ED50: 0.00101 µM
[18]
  ED50: 16.7 µM
[19]
  ED50: 647 µM
[22]
  ED50: 95.3 µM
[23]
  ED50: 9.38 µM
[24]
  ED50: 0.0113 µM
[41]
  ED50: 6770 µM
Lamin-B1 (Homo sapiens)
  ED50: 0.42 µM
[29]
  ED50: 13 µM
[31]
  ED50: 0.0517 µM
[33]
  ED50: 4.5 µM
[34]
  ED50: 13.9 µM
Ephrin type-A receptor 6
  IC50: > 50 µM
[42]
  ED50: 0.0383 µM
[37]
  ED50: 33.9 µM
[43]
  ED50: 0.55 µM
